# Results as given in PMC8140105 (Scientific Reports, 2021).
# Experiments:
# [1] = Multiple time regression (MTR) analysis, blood-to-brain influx; type: in vivo, ICR-CD-1 mice
# Experimental: Briefly, 0.1 µmol of the lyophilized peptide was dissolved in 100 µL of phosphate buffer (pH 7.4, 25 mM). A Iodo-Gen coated tube (Thermo Scientific, Merelbeke, Belgium) was first of all rinsed with 1 mL of phosphate buffer. Subsequently, 50 µL of sodium iodide solution (1.1 µmol/mL) and 1 mCi of Na^125I solution (Perking Elmer, Zaventem, Belgium) were transferred into this Iodo-Gen coated tube. The oxidation reaction was allowed to proceed for six minutes at room temperature, after which the iodonium solution was transferred to 50 µL of peptide solution (1 mM). The iodination reaction of the peptide was allowed to proceed for another six minutes at room temperature. Finally, the iodinated peptide was purified using a silver filter (Thermo Scientific, Merelbeke, Belgium).
# In order to determine whether the peptide could enter the brain, in vivo multiple time regression (MTR) analysis was performed. ICR-CD-1 mice were anesthetized intraperitoneally using a 40% urethane solution (3 g/kg). […] At specified time points after injection (i.e. 1, 3, 5, 10, 12.5 and 15 min, with start and end in duplicate), blood was obtained from the carotid artery followed by decapitation of the mouse. The isolated brain was weighed and radioactivity measured in a gamma counter for 5 min (Wallac Wizard automatic gamma counter, Perkin Elmer, Shelton, CT, USA), as well as from 50 µL serum, which was obtained by centrifuging the collected blood at 10,000g for 15 min at 21 °C. The linear and biphasic modeling of the multiple time regression analysis was performed as previously described.
# SH-SY5Y neuroblast cells = experiment: MTT assay on SH-SY5Y neuroblast cells; type: cell-based; conditions: n = 6
# Experimental: SH-SY5Y neuroblast cells (Sigma-Aldrich, Diegem, Belgium) were grown in F12:MEM (50/50 v/v) medium supplemented with 15% FBS, 1% non-essential amino acids (NEAA), 2 mM L-Glutamine and 1% penicillin/streptomycin solution (Life Technologies, Belgium) in an incubator set at 37 °C and 5% CO2. When confluent, cells were detached using 0.25% Trypsin–EDTA.
# SH-SY5Y cells were seeded at a density of 5 × 10^4 cells/well in a 96-well plate and incubated for 24 h. Next, medium was removed and replaced by 200 µL conditioned medium of BV-2 cells which were treated for 20 h with PapRIV. After 24 h incubation, 20 µL MTT reagent (12 mM) was added and incubated for 3 h. Finally, the medium was removed and replaced by 150 µL DMSO and measured at 570 nm with a microplate reader (Thermofisher, Waltham, USA).
# [2] = Chemical and protease-inactivated homogenate stability; type: in vitro ADME, ICR-CD-1 mice; conditions: for Remaining amount of PapRIV: 1 hour at 37°C
# Experimental: The metabolization rate of the peptide varied between different biological matrices such as serum, brain tissue, liver tissue, kidney tissue and faeces. […] Different metabolites of the peptide could be identified. To exclude the possibility of non-enzymatic degradation, the chemical and protease-inactivated homogenate (by pre-heating the homogenate for 5 min at 95 °C) stability of the peptide was determined. Except for kidney tissue, PapRIV remained stable in protease-inactivated homogenates, pointing an enzymatic degradation in serum, liver, brain and faeces (Supplementary Table S1). In protease-inactivated kidney homogenate, approximately 45% of peptide loss after 60 min can be explained by protein interaction with some kidney specific proteins. In serum, six different metabolites were formed. The MS-spectra of the different metabolites formed and the metabolic profiles in different tissues are given in supplementary information (Supplementary Figs. S6, S7). DLPFEH is the main metabolite which is formed in all matrices, metabolization of the native peptide to this metabolite is the main contributor of the low half-lives observed in kidney tissue and serum (Supplementary Fig. S5). Also in faeces, the matrix in which PapRIV is produced by gut bacteria, metabolization to DLPFEH occurred.
# Supplementary method S3: Tissue homogenate preparation
# Preparation of Krebs-Henseleit buffer (pH 7.4) (KH-buffer)
# The powdered medium was dissolved in 900 mL water while stirring. To this solution, 0.3790 g CaCl2×2H2O and 2.098 g NaHCO3 was subsequently added while stirring. NaOH or HCl was used to adjust to pH 7.4. This solution was then further diluted to 1000 mL using ultrapure […]
# Preparation of tissue homogenates
# - The liver (n = 1), kidneys (n = 6), brains (n = 3), colons (n = 4) and faeces (0.196 g) of ICR-CD-1 mice were collected.
# - After cleaning and rinsing the tissues using ice-cold KH buffer, the tissues were cut in little pieces and transferred into a 50 mL tube to which 36 mL ice-cold KH buffer was added.
# - The tissues were then homogenized with at tissue homogenizer.
# - After the larger particles were allowed to settle for about 30 minutes at 5°C, approximately 25 mL of the middle layer was transferred into a 50 mL Falcon tube using a plastic pipette.
# - After shaking the homogenates, the homogenates were dispensed into 2 mL Eppendorf tubes, and stored at -35°C until use.
# - The protein content of the homogenates were determined using the Pierce Modified Lowry […]
# - Just before use, the homogenates were diluted to a protein concentration of 0.6 mg/mL (i.e.
# 300 µg / 500 µL) with KH buffer.
# - Into a 1.5 ml Protein LoBind tube, 900 µl of serum/tissue extract (500 µl of homogenate/serum and 400 µl of KH buffer, pH 7.4) was transferred.
# - After temperature-equilibration at 37°C for 15 min while shaking at 750 rpm, 100 µl of peptide solution (0.1 mg/mL) was added followed by continued incubation at 37°C (while shaking), with […] aliquots taken after 0, 5, 10, 30 and 60 minutes.
# - The aliquots were immediately transferred into 500 µl Protein LoBind Eppendorf tubes containing 100 µl of 1% V/V trifluoroacetic acid solution in water, heated for 5 minutes at 95°C, and cooled for 30 minutes in an ice-bath.
# - The samples were then centrifuged at 16,000 g for 5 minutes at 5°C.
# - The supernatants was then analyzed by UPLC-UV/MS.
# Supplementary table S1: Chemical and protease-inactivated homogenate stability of PapRIV […]
# Matrix Remaining amount of PapRIV (%)
substance,measurement,setting,value
"SDLPFEH [PapRIV, heptapeptide (SDLPFEH) quorum sensing peptide originating from the Bacillus cereus group; synthetic, purchased from GL Biochem]",K1,"[1]; 125I-labelled, i.v. (jugular vein), mice, 1–15 min, biphasic model, mean ± standard error",6.95 ± 6.25 µL/g/min
same,initial brain influx rate (Ki),"[1]; 125I-labelled, i.v., mice, biphasic model",6.95 µL/g/min
same,"Tissue brain distribution volume, Vg","[1]; 125I-labelled, i.v., mice, biphasic model, mean ± standard error",35.70 ± 61.73 µL/g
same,brain influx class according to the classification system of Stalmans et al.,[1]; classification by influx rate,very high brain influx
same,viability of SH-SY5Y cells with conditioned medium of treated BV-2 cells,"SH-SY5Y neuroblast cells; BV-2 treated 20 h, conditioned medium on SH-SY5Y 24 h",significant decreased viability
same,toxicity of direct treatment of SH-SY5Y cells,SH-SY5Y neuroblast cells; direct peptide treatment,no significant toxic effects
same,Remaining amount of PapRIV,[2]; Inactivated brain homogenate (pre-heated 5 min at 95 °C),101.0%
same,Remaining amount of PapRIV,[2]; Inactivated colon homogenate (pre-heated 5 min at 95 °C),99.2%
same,Remaining amount of PapRIV,[2]; Inactivated faeces homogenate (pre-heated 5 min at 95 °C),101.4%
same,Remaining amount of PapRIV,[2]; Inactivated kidney homogenate (pre-heated 5 min at 95 °C),53.8%
same,Remaining amount of PapRIV,[2]; Inactivated liver homogenate (pre-heated 5 min at 95 °C),101.6%
same,Remaining amount of PapRIV,[2]; Inactivated serum (pre-heated 5 min at 95 °C),99.0%
same,Remaining amount of PapRIV,"[2]; KH-buffer (Krebs-Henseleit, pH 7.4), chemical stability",99.8%
same,peptide loss,"[2]; protease-inactivated kidney homogenate, after 60 min, explained by protein interaction",approximately 45%
